# Assay results taken from a melting point compilation (Tetko et al.; mined from patent text by program, amines drawn as free bases though some values may be those of a salt).
row,Structure (SMILES),melting point
1,Cc1c(CCc2ccc3[nH]c(N)nc3c2)ncn1C(c1ccccc1)(c1ccccc1)c1ccccc1,161 to 164 °C
2,c1coc(-c2nnc(-n3ccnc3)c3ccccc23)c1,151 to 152 °C
3,COc1ccc(CCNc2c(C)c(C)c3c(c2C)C(c2ccc(C(C)C)cc2)C(C)(C)O3)cc1 (stereo not drawn),63 to 65 °C
4,CCOC(=O)c1nc(-c2ccccc2F)c(-c2ccc(=O)n(C(C)C)n2)s1,140 to 141 °C
5,COC(=O)CCCc1cc2cc(Cl)ccc2n1S(=O)(=O)c1ccc2nc(C)sc2c1,151 to 153 °C
6,CC(=O)OCc1c(C(=O)C(=O)O)c2cc(-c3ccc(OC(F)(F)F)cc3)ccc2n1Cc1ccc(C)cc1,79 to 80 °C
7,O=C1c2ccccc2C(=O)c2c1cccc2N1CCC(C2CCNCC2)CC1,155 to 160 °C
8,Cc1c(C=O)cc(-c2ccc(S(C)(=O)=O)cc2)n1-c1ccc(F)cc1,136 to 138 °C
9,CCCCN(Cc1ccc(C#N)cc1Cl)c1c(NC(C)(C)C)c(=O)c1=O,133 to 134 °C
10,CC(=O)N(O)Cc1ccc2c(c1)OCc1ccccc1C2=O,65 to 115 °C
11,O=[N+]([O-])c1ccc2nc(-c3ccccc3)oc2n1,219 to 220 °C
12,O=C(O)CNc1ccc(Cl)c(Cl)c1,128 to 130 °C
13,N#Cc1cccc(-c2ccc(O)c(C=O)c2)c1,139 to 140 °C
14,CCCc1c2c(cc3[nH]c(=O)c(=O)oc13)CCCC2,175 to 180 °C
15,CCOc1nc(NCc2ccco2)nc(Nc2ccc3c(c2)ncn3C)n1,105 to 107 °C
16,OCC1OC(n2cnc3c(-n4cccc4)ncnc32)C(O)C1O (stereo not drawn),114 to 115 °C
17,COc1cccc(Cc2nc3n(-c4c(Cl)cc(C=O)cc4Cl)[nH]c(C(C)C)c-3c(=O)n2)c1,212 to 214 °C
18,CC(C)(C)NC(=O)c1ccc(Cl)c(C(F)(F)F)c1,131 °C
19,Cc1cn(C(C)C(=O)c2ccc(Cl)cc2)c(=O)n1-c1ccc(N2CCN(c3ccc(O)cc3)CC2)cc1 (stereo not drawn),230 °C
20,c1ccc(COc2cc(OCc3ccccc3)cc(OCc3ccccc3)c2)cc1,91.5 to 91.9 °C
21,NC(=S)CCn1nc(-c2ccccc2)ccc1=O,173 to 175 °C
22,COc1ccc(C=N[C@H]2C(OC(C)=O)O[C@H](COC(C)=O)[C@@H](OC(C)=O)[C@@H]2OC(C)=O)cc1 (stereo partly drawn),180 to 181 °C
23,CCOC(=O)C(=CN(C)C)C(=O)C(Cl)Cl,71 to 72 °C
24,CC(C)n1cc(-c2ccc(C=O)cc2)c2c(Cl)ncnc21,138 to 140 °C
25,O=C(O)Cc1cccc(C=C(C(=O)O)c2nc(-c3ccccc3)c(-c3ccccc3)o2)c1,178 to 182 °C

row,Structure (SMILES),melting point
1,CN(C)CCc1cccc(OCCCN2C(=O)c3ccccc3C2=O)c1,59 to 60 °C
2,Cc1noc2cc3c(cc12)C1(CO3)C(=O)N(Cc2ncccc2C(F)(F)F)c2ccccc21 (stereo not drawn),221 to 222 °C
3,O=C(NCc1ccc(Cl)cc1)c1cc(Br)c2cccnc2c1O,148 to 151 °C
4,O=C(N[C@H]1CCN(CCc2ccc(F)cc2)C1)N(C1CCCCC1)C1CCCCC1,97 to 98 °C
5,CCOC(=O)CCc1c(C)nc(SCc2ccc(OC)cc2)n1C,63 °C
6,"O=C(CN1C(=O)CC1S(=O)(=O)c1ccccc1)NCCCCCCc1ccc(Cl)cc1 (single isomer, unassigned; (-))",106 to 109 °C
7,O=C(Nc1ccccc1C(F)(F)F)c1ccccc1,146 °C
8,O=C(NCCc1c[nH]c2ccc(C(=O)O)cc12)OCc1ccccc1,186 to 188 °C
9,CCOC(=O)C1=C(N2CC2C(N)=O)CCCC1 (stereo not drawn),101 to 104 °C
10,COC(=O)c1ccc(CN2C(=O)C(CCO)Oc3ccccc32)cc1 (stereo not drawn),94 to 95 °C
11,CC1(OCc2ccccc2F)COC(C(C)(C)C)OC1 (stereo not drawn),50 to 52 °C
12,O=C(ON1C(=O)CCC1=O)c1ccc(-c2ccc(S(=O)(=O)N3CCCC(CO)C3)cc2)[nH]c1=O (stereo not drawn),201 to 204 °C
13,COc1cc2cc3c(Nc4ccc(F)c(Cl)c4)c(C#N)cnc3cc2cc1OCCCl,137 to 159 °C
14,Cc1nc(N2CCN(Cc3ccc(F)cc3)C2=O)sc1C(=O)N(C)C,162 to 164 °C
15,NC(=O)[C@@H]1[C@H](Nc2c(Br)cnc3[nH]c(-c4ccc(N5CCOCC5)cc4)nc23)[C@H]2C=C[C@@H]1C2,283 to 284 °C
16,NCCCP(=O)(O)c1ccccc1,298 to 300 °C
17,COC(=O)CC(C)NC(=O)c1ccc(N2CCN(c3ccncc3)CC2)cc1 (stereo not drawn),130 to 132 °C
18,Nc1n[nH]cc1C(=O)c1ccccc1,177 to 179 °C
19,C=CCOC(=O)c1ccc(NCCCCCCCCCCCCCCCC)cc1,81 to 83 °C
20,N#Cc1ccc(N(Cc2ccc(OCc3ccccc3)cc2)n2cnnc2)cc1-c1cc2ccccc2o1,200 to 201 °C
21,CC(C)Oc1ccc(CCCCOc2cc(CCC(=O)O)n(C)n2)c(Oc2ncc(C(F)(F)F)cc2Cl)c1,156 to 157 °C
22,CC(NC(=O)OCc1ccccc1)P(C)(=O)OCc1ccccc1 (stereo not drawn),108 to 110 °C
23,CNC(=S)Nc1ncc(Cl)cc1Cl,105 to 109 °C
24,O=C(Nc1ccc(C(=O)N2Cc3ccccc3Cc3ccccc32)cn1)c1ccccc1-c1ccccc1,134 to 142 °C
25,c1csc(Nc2ccnc3cn[nH]c23)c1,255 to 259 °C

row,Structure (SMILES),melting point
1,COC(=O)c1ccc(OCC2CO2)cc1O (stereo not drawn),53 to 55 °C
2,COc1cc(C(=O)P2(=O)Oc3ccccc3-c3ccccc32)cc(OC)c1OC (stereo not drawn),147 to 149 °C
3,O=C(O)c1ccccc1-c1ccc(C(=O)N2Cc3ccc(C(=O)NCc4cccnc4)n3Cc3ccccc32)cc1,189 to 191 °C
4,COc1ccc2c(c1)CC(C)(CN1CCN(c3ccccc3)CC1)NC2=O (stereo not drawn),93 to 95 °C
5,Cc1cccc2c1nc(COc1ccc(Cl)cc1)n2CCC(C)C(=O)N1CCCC1 (racemic),140 to 142 °C
6,CON(C)C(=O)C1(C)CCc2c(C)c(O)c(C)c(C)c2O1 (stereo not drawn),139 to 140 °C
7,COc1cc(CNc2n[nH]c3ncnc(Nc4cccc(Cl)c4)c23)cc(OC)c1OC,240 to 245 °C
8,CC(C)N(C(=O)CN1C(=O)C(Cc2n[nH]c3ccccc23)C(=O)N(c2ccccc2)c2ccccc21)c1ccc(C(F)(F)F)cc1 (stereo not drawn),145 to 148 °C
9,CCCCCCCCCCCCCCOCC(CO)(CO)COCCCCCCCCCCCCCC,63 to 64 °C
10,CC1Nc2ccc(S(=O)(=O)N(C)C)cc2S(=O)(=O)N1 (stereo not drawn),210 to 212 °C
11,Cc1nc(N)nc(O)c1I,212 °C
12,O=C(c1ccc(Cl)c(Cl)c1)N1CCCC(c2ccc(Br)s2)=N1,138 to 140 °C
13,COc1c(-c2ccc(O)c(O)c2)oc2cc(O)c(CC=C(C)CCC=C(C)C)c(O)c2c1=O,98 to 99 °C
14,COC(=O)C1=C(C)NC(C)=C(C(=O)OCCCCCCOc2cc(-c3ccc4c(c3)OCO4)[nH]n2)C1c1cccc([N+](=O)[O-])c1 (stereo not drawn),167 to 169 °C
15,Cc1nc(/C=C/c2ccccc2)no1,166 to 168 °C
16,O=c1[nH]c2cc(Cl)ccc2c(O)c1-c1cccc(Oc2ccccn2)c1,269 to 271 °C
17,O=C(c1c(F)cccc1F)N1COCN(c2ccc(SC(F)F)cc2F)C1=O,77 to 79 °C
18,COc1ccc(C(=O)Nc2ccccc2)cc1NS(=O)(=O)c1cccc(C)c1,195 to 197 °C
19,CCCCc1c(C(=O)OCC)cc(OC(C)=O)c2c(OC)cccc12,86 to 88 °C
20,Cc1ccc(NS(=O)(=O)c2ccc([N+](=O)[O-])cc2)cc1,170 to 172 °C
21,COc1ccc(Oc2ccc3ccc(NC(=O)c4ccccc4)nc3n2)cc1,171 °C
22,NNc1c(Cl)c(Cl)nc(C(=O)O)c1Cl,166 to 168 °C
23,CCCC(=O)c1cnc2c(F)cccc2c1Cl,57 to 60 °C
24,C#C[C@H]1CC[C@H](C(=O)O)CC1,161 to 162 °C
25,O=C(NCC12CC3CC(CC(C3)C1)C2)c1cc(OCCO)ncc1Cl,154 to 155 °C

row,Structure (SMILES),melting point
1,CCOC(=O)c1c(N)c2ccc(C)nc2n(CC)c1=O,196 to 198 °C
2,CCCCCCCCOc1ccc(-c2cnc(C(=O)O)c(C(=O)O)n2)cc1,163 °C
3,CCC(=O)NC[C@H]1CN(c2ccc3c(c2)C[C@@H](C)N3C=O)C(=O)O1,118 to 119 °C
4,CC(C)C(=O)c1cc(O)c(O)c([N+](=O)[O-])c1,98 to 99 °C
5,COC(=O)COc1ccc(C(C)=O)c(C)c1,49 to 50 °C
6,CC1(C)CC(=O)c2c(Br)cn(-c3ccccn3)c2C1,166 to 168 °C
7,CC1(C)OC(C=Cc2ccncc2)=CC1=O,94 to 96 °C
8,CCCOc1ccc(C(=O)CBr)cc1-c1nc2c(CCC)nn(C)c2c(=O)[nH]1,136 to 137 °C
9,N#CSCCNc1cc(Cl)ccc1[N+](=O)[O-],115 to 116 °C
10,Clc1cc(CCc2ccccn2)c2oc(-c3cn[nH]c3)nc2c1,204 to 208 °C
11,CC1CC(=O)NN=C1c1ccc2[nH]c(-c3ccnnc3)cc2c1 (stereo not drawn),293 to 295 °C
12,CCOC(=O)c1c(-c2cccc(C)c2)csc1N1C(=O)c2ccccc2C1=O,175 to 176 °C
13,CCCOc1ccc(-c2ccc3c(c2)C=C(C(=O)OC)CCS3(=O)=O)cc1,153 to 155 °C
14,CC(=O)ON(C(N)=O)C(C)c1cc2ccccc2s1 (stereo not drawn),138 °C
15,Cc1oc(C=Cc2cccc(Cl)c2)nc1CC(=O)O,214 to 215 °C
16,CC(C)(C)c1cc(CCc2ccc(F)cc2NC(=O)NC2CCN(Cc3ccccc3)CC2)cc(C(C)(C)C)c1O,118 to 119 °C
17,CCOC(=O)c1cccc2c1c(C(=O)C(=O)NC1=CC(=O)OC1)cn2Cc1ccc(Cl)cc1,242 to 244 °C
18,Cc1cccc(CC(=O)N2C[C@@H]3C(=O)CCC(c4ccccc4)(c4ccccc4)[C@@H]3C2)c1 (racemic),184 °C
19,Cc1cc(NN)nc(-c2ccncc2)n1,150 to 152 °C
20,COc1cc(Nc2c([N+](=O)[O-])ccc(Cl)c2C(=O)O)cc(OC)c1,174 to 177 °C
21,OC(CCc1ccccc1)c1cnc2sc3cc(F)ccc3n12 (stereo not drawn),195 to 196 °C
22,Cn1ncc(/C=C/C(=O)Nc2ccc(CCc3nccs3)cc2)c1-c1ccc(F)cc1,201 to 202 °C
23,Cc1c(C#N)c(-c2ccc(C#N)cc2)c(C)n1Cc1cnc(Cl)c(COC(=O)CCC(=O)O)c1,187 to 188 °C
